Results published in US10421774B2 (priority 2016, dated 2019).

Tests used:
Test in all cases: microbe, parasite or virus in culture
Format in all cases: cell-based, HIV-1
[1] = test system: A364V site directed mutant virus; settings: Human immunodeficiency virus 1, MT2, read-out: A364V EC50
Procedure: (§1) Cells. MT-2 cells and 293T cells were obtained from the NIH AIDS Research and Reference Reagent Program. Cell lines were sub-cultured twice a week in either RPMI 1640 (MT-2) or DMEM (293T, HeLa) media supplemented with 10% heat inactivated fetal bovine serum (FBS), 100 units/mL of penicillin G and 100 μg/mL of streptomycin. The DMEM medium was additionally supplemented with 10 mM HEPES buffer, pH 7.55, 2 mM L-glutamine and 0.25 μg/mL of amphotericin B.
(§2) Viruses. NLRepRluc virus contains the Renilla luciferase marker in place of the viral nef gene. The proviral plasmid pNLRepRluc was constructed at Bristol-Myers Squibb, starting from a proviral NL4-3 clone (B subtype) that was obtained from the NIH AIDS Research and Reference Reagent Program. The parental recombinant wild type (WT) virus (NLRepRlucP373S) was derived from NLRepRluc and contains the additional substitution of P373 for serine in Gag (within the SP1 spacer), the most common 373 variation in subtype B. Other recombinant viruses (A364V, V370A/ΔT371 and the “T3325 triple” (T332S/V362I+HIV-1 protease R41G)) were generated by site-directed mutagenesis of plasmid pNLRepRlucP373S to introduce those amino acid substitutions in Gag and protease. Recombinant virus DNA was then used to generate virus stocks by transfection of 293T cells (Lipofectamine PLUS kit, Invitrogen). Titers of virus stocks were determined using a luciferase assay (Dual-Luciferase® Reporter Assay System, Promega, Milwaukee, Wis., USA) endpoint.
(§3) Multiple cycle drug susceptibility assay. Pellets of MT-2 cells were infected with NLRepRlucP373S Gag site-directed viruses, where initial inocula of the reporter strains were normalized using equivalent endpoint luciferase activity signals. Such cell-virus mixtures were resuspended in medium, incubated for 1-hour at 37° C./CO2, and added to compound containing 96-well plates at a final cell density of 10,000 cells per well. The test compounds were 3-fold serially diluted in 100% DMSO, and assayed at a final DMSO concentration of 1%. After 4-5 day incubation at 37° C./CO2, virus yields were determined by Renilla luciferase activity (Dual-Luciferase® Reporter Assay System, Promega). The endpoint luminescence was detected on a Wallac Trilux (PerkinElmer).
(§4) HIV-1 NL4-3 expressing Renilla luciferase gene was converted to the gag V370A/ΔT371 virus by site directed mutagenesis. A364V is a site directed mutant.
(§5) All three recombinant viruses were used as described above in the HIV cell culture assay for the NL4-3 virus.

gag V370A/ΔT371 virus = settings: Human immunodeficiency virus 1, MT2, read-out: V370A/ΔT371 EC50
Procedure: as §1, §2, §3, §4, §5

[2] = test system: NLRepRlucP373S recombinant wild type (WT) virus; settings: Human immunodeficiency virus 1, MT2, read-out: WT EC50
Procedure: as §1, §2, §3
(§6) The 50% inhibitory concentrations (EC50S) were calculated by using the exponential form of the median effect equation where Percent Inhibition=1/[1+(EC50/drug conc.^m], where m is a parameter that reflects the slope of the concentration-response curve. Background was taken as the residual signal observed upon inhibition at the highest concentration of a control protease inhibitor, NFV (3 μM).
as §6, with “The 90%” for “The 50%”, “concentrations (EC90S)” for “concentrations (EC50S)”, “where ECF=[(F/(100−F)]^1/H·EC50,” for “where Percent Inhibition=1/[1+(EC50/drug conc.^m],”, “where H” for “where m”

[3] = test system: T332S/V362I/Pr R41G virus; settings: Human immunodeficiency virus 1, MT2, read-out: T332S/V362I/pr41G EC50
Procedure: as §1, §2, §3
T332sN362I/Pr R41G (N14.3, B Clade) virus′ was obtained as follows: Selection for resistance of HIV-1 strain […] virus with the HIV maturation inhibitor (MI) compound
At passage 8 virus was harvested and sequenced.
as §5

C=C(C)[C@@H]1CC[C@]2(NCCN3CCS(=O)(=O)CC3)CC[C@]3(C)[C@H](CC[C@@H]4[C@@]5(C)CC=C(C6=CCC(COc7ccccn7)(C(=O)O)CC6)C(C)(C)[C@@H]5CC[C@]43C)[C@@H]12 (stereo partly shown) [Example 1]
EC50 [1]: 0.011 µM
EC50 (gag V370A/ΔT371 virus): 0.017 µM
EC50 [2]: 0.003 µM
EC50 [3]: 0.014 µM

C=C(C)[C@@H]1CC[C@]2(NCCN3CCS(=O)(=O)CC3)CC[C@]3(C)[C@H](CC[C@@H]4[C@@]5(C)CC=C(C6=CCC(COc7cc(-c8ccccc8)nn7C)(C(=O)O)CC6)C(C)(C)[C@@H]5CC[C@]43C)[C@@H]12 (stereo partly drawn) [Example 2, 4-((1R,3aS,5aR,5bR,7aR,11aS,11bR,13aR,13bR)-3a-((2-(1,1-dioxidothiomorpholino)ethyl)amino)-5a,5b,8,8,11a-pentamethyl-1-(prop-1-en-2-yl)-2,3,3a,4,5,5a,5b,6,7,7a,8,11,11a,11b,12,13,13a,13b-octadecahydro-1H-cyclopenta[a]chrysen-9-yl)-1-(((1-methyl-3-phenyl-1H-pyrazol-5-yl)oxy)methyl)cyclohex-3-ene-1-carboxylic acid]
EC50 [1]: 1.94 µM
EC50 [2]: 3 µM
EC50 [3]: 3 µM

C=C(C)[C@@H]1CC[C@]2(NCCN3CCS(=O)(=O)CC3)CC[C@]3(C)[C@H](CC[C@@H]4[C@@]5(C)CC=C(C6=CCC(COc7cc(C(F)(F)F)n(C)n7)(C(=O)O)CC6)C(C)(C)[C@@H]5CC[C@]43C)[C@@H]12 (stereo partly shown) [Example 3]
EC50 [1]: 2.22 µM
EC50 [2]: 0.009 µM
EC50 [3]: 2.17 µM

C=C(C)[C@@H]1CC[C@]2(NCCN3CCS(=O)(=O)CC3)CC[C@]3(C)[C@H](CC[C@@H]4[C@@]5(C)CC=C(C6=CCC(COc7nc(C(=O)O)cs7)(C(=O)O)CC6)C(C)(C)[C@@H]5CC[C@]43C)[C@@H]12 (stereo partly drawn) [Example 4, 2-((1-carboxy-4-((1R,3aS,5aR,5bR,7aR,11aS,11bR,13aR,13bR)-3a-((2-(1,1-dioxidothiomorpholino)ethyl)amino)-5a,5b,8,8,11a-pentamethyl-1-(prop-1-en-2-yl)-2,3,3a,4,5,5a,5b,6,7,7a,8,11,11a,11b,12,13,13a,13b-octadecahydro-1H-cyclopentatalchrysen-9-yl)cyclohex-3-en-1-yl)methoxy)thiazole-4-carboxylic acid]
EC50 [1]: > 0.05 µM
EC50 (gag V370A/ΔT371 virus): > 0.05 µM
EC50 [2]: > 0.05 µM
EC50 [3]: > 0.05 µM

C=C(C)[C@@H]1CC[C@]2(NCCN3CCS(=O)(=O)CC3)CC[C@]3(C)[C@H](CC[C@@H]4[C@@]5(C)CC=C(C6=CCC(COc7nsnc7C)(C(=O)O)CC6)C(C)(C)[C@@H]5CC[C@]43C)[C@@H]12 (stereo partly drawn) [Example 5, 4-((1R,3aS,5aR,5bR,7aR,11aS,11bR,13aR,13bR)-3a-((2-(1,1-dioxidothiomorpholino)ethyl)amino)-5a,5b,8,8,11a-pentamethyl-1-(prop-1-en-2-yl)-2,3,3a,4,5,5a,5b,6,7,7a,8,11,11a,11b,12,13,13a,13b-octadecahydro-1H-cyclopenta[a]chrysen-9-yl)-1-(((4-methyl-1,2,5-thiadiazol-3-yl)oxy)methyl)cyclohex-3-ene-1-carboxylic acid]
EC50 [1]: 0.015 µM
EC50 (gag V370A/ΔT371 virus): 0.015 µM
EC50 [2]: 0.003 µM
EC50 [3]: 0.015 µM

C=C(C)[C@@H]1CC[C@]2(NCCN3CCS(=O)(=O)CC3)CC[C@]3(C)[C@H](CC[C@@H]4[C@@]5(C)CC=C(C6=CCC(COc7cnsn7)(C(=O)O)CC6)C(C)(C)[C@@H]5CC[C@]43C)[C@@H]12 (stereo partly drawn) [Example 6, 1-(((1,2,5-thiadiazol-3-yl)oxy)methyl)-4-((1R,3aS,5aR,5bR,7aR,11aS,11bR,13aR,13bR)-3a-((2-(1,1-dioxidothiomorpholino)ethyl)amino)-5a,5b,8,8,11a-pentamethyl-1-(prop-1-en-2-yl)-2,3,3a,4,5,5a,5b,6,7,7a,8,11,11a,11b,12,13,13a,13b-octadecahydro-1H-cyclopenta[a]chrysen-9-yl)cyclohex-3-ene-1-carboxylic acid]
EC50 [1]: > 0.05 µM
EC50 (gag V370A/ΔT371 virus): < 0.05 µM
EC50 [2]: < 0.05 µM
EC50 [3]: < 0.05 µM

C=C(C)[C@@H]1CC[C@]2(NCCN3CCS(=O)(=O)CC3)CC[C@]3(C)[C@H](CC[C@@H]4[C@@]5(C)CC=C(C6=CCC(COc7cnnn7CC)(C(=O)O)CC6)C(C)(C)[C@@H]5CC[C@]43C)[C@@H]12 (stereo partly shown) [Example 7]
EC50 [1]: 0.095 µM
EC50 (gag V370A/ΔT371 virus): 0.192 µM
EC50 [2]: 0.002 µM
EC50 [3]: 0.192 µM

C=C(C)[C@@H]1CC[C@]2(NCCN3CCS(=O)(=O)CC3)CC[C@]3(C)[C@H](CC[C@@H]4[C@@]5(C)CC=C(C6=CCC(COc7nsc8ccccc78)(C(=O)O)CC6)C(C)(C)[C@@H]5CC[C@]43C)[C@@H]12 (stereo partly shown) [Example 8]
EC50 [1]: < 0.05 µM
EC50 (gag V370A/ΔT371 virus): < 0.05 µM
EC50 [2]: < 0.05 µM
EC50 [3]: < 0.05 µM

C=C(C)[C@@H]1CC[C@]2(NCCN3CCS(=O)(=O)CC3)CC[C@]3(C)[C@H](CC[C@@H]4[C@@]5(C)CC=C(C6=CCC(COc7ccncc7)(C(=O)O)CC6)C(C)(C)[C@@H]5CC[C@]43C)[C@@H]12 (stereo partly drawn) [Example 9, 4-((1R,3aS,5aR,5bR,7aR,11aS,11bR,13aR,13bR)-3a-((2-(1,1-dioxidothiomorpholino)ethyl)amino)-5a,5b,8,8,11a-pentamethyl-1-(prop-1-en-2-yl)-2,3,3a,4,5,5a,5b,6,7,7a,8,11,11a,11b,12,13,13a,13b-octadecahydro-1H-cyclopenta[a]chrysen-9-yl)-1-((pyridin-4-yloxy)methyl)cyclohex-3-ene-1-carboxylic acid]
EC50 [1]: 0.035 µM
EC50 [2]: 0.002 µM
EC50 [3]: 0.014 µM

C=C(C)[C@@H]1CC[C@]2(NCCN3CCS(=O)(=O)CC3)CC[C@]3(C)[C@H](CC[C@@H]4[C@@]5(C)CC=C(C6=CCC(COc7cccnc7)(C(=O)O)CC6)C(C)(C)[C@@H]5CC[C@]43C)[C@@H]12 (stereo partly drawn) [Example 10, 4-((1R,3aS,5aR,5bR,7aR,11aS,11bR,13aR,13bR)-3a-((2-(1,1-dioxidothiomorpholino)ethyl)amino)-5a,5b,8,8,11a-pentamethyl-1-(prop-1-en-2-yl)-2,3,3a,4,5,5a,5b,6,7,7a,8,11,11a,11b,12,13,13a,13b-octadecahydro-1H-cyclopenta[a]chrysen-9-yl)-1-((pyridin-3-yloxy)methyl)cyclohex-3-enecarboxylic acid]
EC50 [1]: 0.027 µM
EC50 [2]: 0.002 µM
EC50 [3]: 0.006 µM

C=C(C)[C@@H]1CC[C@]2(NCCN3CCC(S(C)(=O)=O)CC3)CC[C@]3(C)[C@H](CC[C@@H]4[C@@]5(C)CC=C(C6=CCC(COc7cccnc7)(C(=O)O)CC6)C(C)(C)[C@@H]5CC[C@]43C)[C@@H]12 (stereo partly drawn) [Example 11, 4-((1R,3aS,5aR,5bR,7aR,11aS,11bR,13aR,13bR)-5a,5b,8,8,11a-pentamethyl-3a-((2-(4-(methylsulfonyl)piperidin-1-yl)ethyl)amino)-1-(prop-1-en-2-yl)-2,3,3a,4,5,5a,5b,6,7,7a,8,11,11a,11b,12,13,13a,13b-octadecahydro-1H-cyclopenta[a]chrysen-9-yl)-1-((pyridin-3-yloxy)methyl)cyclohex-3-enecarboxylic acid]
EC50 [1]: 0.018 µM
EC50 [2]: 0.002 µM
EC50 [3]: 0.008 µM

C=C(C)[C@@H]1CC[C@]2(NCCN3CCS(=O)(=O)CC3)CC[C@]3(C)[C@H](CC[C@@H]4[C@@]5(C)CC=C(C6=CCC(COc7cc(C)sn7)(C(=O)O)CC6)C(C)(C)[C@@H]5CC[C@]43C)[C@@H]12 (stereo partly shown) [Example 12]
EC50 [1]: < 0.05 µM
EC50 (gag V370A/ΔT371 virus): < 0.05 µM
EC50 [2]: < 0.05 µM
EC50 [3]: < 0.05 µM
